According to publication PMC10122661 (2023):

Columns and labels:
[1] = tested on: riboSAM (full-length SAM-VI riboswitch, 95 nt) (RNA, riboswitch) GGGAAGAAAUAACAAUCAACGACGUAUCAUUGUGCCUCGCUUUCCGCGGGGCGAUAAGUCCUGAAGAAAGGGAUGAUAUGACAUAAGAACAUCGG …; experiment: ITC; details: 100 mM KCl, 10 mM MgCl2; 40 mM HEPES, pH 7.5, room temperature; 45 μM RNA
[2] = tested on: 15N-16U24G-riboSAM (RNA, riboswitch) GGGAAGAAAUAACAAUCAACGACGUAUCAUUGUGCCUCGCUUUCCGCGGGGCGAUAAGUCCUGAAGAAAGGGAUGAUAUGACAUAAGAACAUCGG; experiment: 1H15N-HSQC NMR; details: 25 mM K2HPO4, 50 mM KCl, 2 mM MgCl2; pH 6.5, 25 or 37 °C; 0.5 mM RNA, 0.5 mM SAM
[3] = tested on: 15N-16U24G-riboSAM hybridized with 21 nt-DNA (DNA:RNA, riboswitch) GGGAAGAAAUAACAAUCAACGACGUAUCAUUGUGCCUCGCUUUCCGCGGGGCGAUAAGUCCUGAAGAAAGGGAUGAUAUGACAUAAGAACAUCGG/CCGATGTTCTTATGTCATATC; experiment: 1H15N-HSQC NMR; details: 25 mM K2HPO4, 50 mM KCl, 2 mM MgCl2; pH 6.5; 0.5 mM SAM, 0.5 mM RNA; 3' end blocked by 21-nt DNA
[4] = tested on: 15N-25U32G-riboSAM hybridized with 19 nt-DNA (DNA:RNA, riboswitch) GGGAAGAAAUAACAAUCAACGACGUAUCAUUGUGCCUCGCUUUCCGCGGGGCGAUAAGUCCUGAAGAAAGGGAUGAUAUGACAUAAGAACAUCGG/CCGATGTTCTTATGTCATA; experiment: 1H15N-HSQC NMR; details: 25 mM K2HPO4, 50 mM KCl, 2 mM MgCl2; pH 6.5; 3' end blocked by 19-nt DNA
[5] = tested on: 2AP-riboSAM (RNA, riboswitch, 2-aminopurine at 59 (replaces U59)) GGGAAGAAAUAACAAUCAACGACGUAUCAUUGUGCCUCGCUUUCCGCGGGGCGAUAAGACCUGAAGAAAGGGAUGAUAUGACAUAAGAACAUCGG; experiment: stopped-flow 2AP fluorescence; details: 100 mM KCl, 2 mM MgCl2; 10 mM HEPES, pH 7.5, room temperature; 0.5 μM RNA
[6] = tested on: 2AP-mutant (riboSAM mutant, P0 helix disrupted) (RNA, riboswitch, 2-aminopurine at 59 (replaces U59)) GGGAAGAAAUAUGCCUCAACGACGUAUCAUUGUGCCUCGCUUUCCGCGGGGCGAUAAGACCUGAAGAAAGGGAUGAUAUGACAUAAGAACAUCGG; experiment: stopped-flow 2AP fluorescence; details: 100 mM KCl, 2 mM MgCl2; 10 mM HEPES, pH 7.5, room temperature; 0.5 μM RNA
[7] = tested on: 2AP-riboSAM (RNA, riboswitch, 2-aminopurine at 59 (replaces U59)) GGGAAGAAAUAACAAUCAACGACGUAUCAUUGUGCCUCGCUUUCCGCGGGGCGAUAAGACCUGAAGAAAGGGAUGAUAUGACAUAAGAACAUCGG; experiment: steady-state 2AP fluorescence titration; details: 100 mM KCl, 2 mM MgCl2; 10 mM HEPES, pH 7.5, room temperature; 0.5 μM RNA; apparent
[8] = tested on: 2AP-mutant (riboSAM mutant, P0 helix disrupted) (RNA, riboswitch, 2-aminopurine at 59 (replaces U59)) GGGAAGAAAUAUGCCUCAACGACGUAUCAUUGUGCCUCGCUUUCCGCGGGGCGAUAAGACCUGAAGAAAGGGAUGAUAUGACAUAAGAACAUCGG; experiment: steady-state 2AP fluorescence titration; details: 100 mM KCl, 2 mM MgCl2; 10 mM HEPES, pH 7.5, room temperature; 0.5 μM RNA; apparent

Which results are given for `C[S+](CC[C@H](N)C(=O)O)C[C@H]1O[C@@H](n2cnc3c(N)ncnc32)[C@H](O)[C@@H]1O` (some centres unmarked)?
Kd [1]: 1.03 ± 0.23 µM; binding [2]: yes; binding [3]: no; binding [4]: yes; Kon [5]: 5690 ± 83 M⁻¹ s⁻¹; Kon [6]: 4480 ± 51 M⁻¹ s⁻¹; Kd [7]: 9.650 ± 0.065 µM; Kd [8]: ~ 11.861 ± 0.341 μM
